Assay results published in patent US5122514A, “Psoriasis treatment” (Abbott Laboratories, priority 1991, dated 1992).
Where a name gives a salt, the structure may show the parent alone.

System: psoriatic lesions on the patient's elbow, face and scalp
Assay: Grading of psoriatic lesions in a patient after intravenous enalkiren
Format: in vivo, human
Design: key to Right Elbow Lesions lesion severity, lesion ranking: 0: Complete clearing; 1: Minimal severity; 2: Moderately severe; 3: Severe; 4: More severe; key to Right Elbow Lesions erythema, lesion ranking / Face Lesions erythema, lesion ranking / Scalp Lesions erythema, lesion ranking: 0: None; 1: Very Mild: light red/pink; 2: Moderate: red but still not dark in texture; 3: Strong: very red, possibly dark; 4: Extreme: angry red
Method: A patient with documented psoriasis received 0.1 mg/kg of enalkiren (H-((beta,beta-dimethyl)-beta-Ala)-(4-OCH3)Phe-His amide of 2(S)-amino-1cyclohexyl-3(R), 4(S)-dihydroxy-6-methylheptane diacetic acid salt)(enalkiren 5.0 mg/5 ml (0.1% concentration), glacial acetic acid 0.91 mg/5ml and sodium chloride 43.9 mg/5 ml in water for injection) intravenously over a 5 minute period, followed 40 minutes later by administration of an additional 0.3 mg/kg of enalkiren intravenously over a 5 minute period. The psoriatic lesions on the patient's elbow, face and scalp were graded prior to treatment and 2, 4 and 7 days following treatment.

[1] = +2 Days after 0.1 mg/kg then 0.3 mg/kg intravenously
[2] = +4 Days after 0.1 mg/kg then 0.3 mg/kg intravenously
[3] = +7 Days after 0.1 mg/kg then 0.3 mg/kg intravenously
[4] = Treatment Day (graded prior to treatment), person with psoriasis

Compound: COc1ccc(C[C@H](NC(=O)CC(C)(C)N)C(=O)N[C@@H](Cc2cnc[nH]2)C(=O)N[C@@H](CC2CCCCC2)[C@@H](O)[C@@H](O)CC(C)C)cc1 [Enalkiren, H-((beta,beta-dimethyl)-beta-Ala)-(4-OCH3)Phe-His amide of 2(S)-amino-1cyclohexyl-3(R), 4(S)-dihydroxy-6-methylheptane diacetic acid salt]
- Face Lesions erythema, lesion ranking [1]: 3
- Right Elbow Lesions erythema, lesion ranking [1]: 4
- Right Elbow Lesions lesion severity, lesion ranking [1]: 4
- Scalp Lesions erythema, lesion ranking [1]: 4
- Face Lesions erythema, lesion ranking [2]: 2
- Right Elbow Lesions erythema, lesion ranking [2]: 3
- Right Elbow Lesions lesion severity, lesion ranking [2]: 3
- Scalp Lesions erythema, lesion ranking [2]: 3
- Face Lesions erythema, lesion ranking [3]: 2
- Right Elbow Lesions erythema, lesion ranking [3]: 3
- Right Elbow Lesions lesion severity, lesion ranking [3]: 3
- Scalp Lesions erythema, lesion ranking [3]: 3
- Face Lesions erythema, lesion ranking [4]: 3
- Right Elbow Lesions erythema, lesion ranking [4]: 4
- Right Elbow Lesions lesion severity, lesion ranking [4]: 4
- Scalp Lesions erythema, lesion ranking [4]: 4
